Results taken from patent publication US20250215039A1, “NUCLEOSIDES FOR TREATING CANCER” (PRIMEFOUR THERAPEUTICS, INC., priority 2022, published 2025).
Like-named read-outs stand apart in the source and are kept apart here.

System: cancer cell lines
Experiment: Cancer cell proliferation activity (CellTiterGlo, 72 h)
Format: cell-based
Details: for IC50: 72 h, read-out: IC50
In short: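 Cells seeded overnight at 37 °C, then dosed with compound at 0.1% final DMSO and incubated 72 h at 37 °C (5% or 10% CO2 by medium).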

IC50 (5637 cell line (bladder)): 1.6 nM
IC50 (CLS439 cell line (bladder)): 3.5 nM
IC50 (HS729 cell line (muscle)): 3.6 nM
IC50 (HSS78T cell line): 3.8 nM
IC50 (JAR cell line (placenta)): 2 nM
IC50 (SKMELS cell line): 3.2 nM
IC50 (Homo sapiens, 22Rv1, 72 h, 22RV1 cell line (prostate)): 13 nM
IC50 (Homo sapiens, 786-0, 72 h, 786O cell line (kidney)): 4.1 nM
IC50 (Homo sapiens, A204, 72 h, A204 cell line (muscle)): 0.9 nM
IC50 (Homo sapiens, A549, 72 h, A549 cell line): 3.1 nM
IC50 (Homo sapiens, A673, 72 h, A673 cell line (bone)): 3.5 nM
IC50 (Homo sapiens, A2780, 72 h, A2780 cell line (ovary)): 2.4 nM
IC50 (Homo sapiens, A-375, 72 h, A375 cell line (skin)): 2.3 nM
IC50 (Homo sapiens, A-431, 72 h, A431 cell line (skin)): 2.3 nM
IC50 (Homo sapiens, ACHN, ACHN cell line (kidney)): 1.5 nM
IC50 (Homo sapiens, ASPC1, 72 h, ASPC1 cell line (pancreas)): 5.2 nM
IC50 (Homo sapiens, BT-20, 72 h, BT20 cell line (breast)): 7 nM
IC50 (Homo sapiens, BXPC-3, 72 h, BXPC3 cell line (pancreas)): 2.4 nM
IC50 (Homo sapiens, C-33-A, C33A cell line (cervical)): 4.4 nM
IC50 (Homo sapiens, CAKI-1, 72 h, CAKI1 cell line (kidney)): 2.7 nM
IC50 (Homo sapiens, COLO 205, 72 h, COLO205 cell line (colon)): 20.2 nM
IC50 (Homo sapiens, COLO-678, 72 h, COLO678 cell line (colon)): 5.3 nM
IC50 (Homo sapiens, Ca-Ski, CASKI cell line (cervical)): 5.9 nM
IC50 (Homo sapiens, Caco-2, 72 h, CACO2 cell line (colon)): 7 nM
IC50 (Homo sapiens, Calu-6, 72 h, CALU6 cell line (lung)): 6.1 nM
IC50 (Homo sapiens, DLD-1, 72 h, DLD1 cell line (colon)): 5.3 nM
IC50 (Homo sapiens, DU-145, 72 h, DU145 cell line (prostate)): 2.1 nM
IC50 (Homo sapiens, EFO-21, 72 h, EFO21 cell line (ovary)): 1.9 nM
IC50 (Homo sapiens, EJ-28, 72 h, EJ28 cell line (bladder)): 2.1 nM
IC50 (Homo sapiens, Granta-519, 72 h, GRANTA-519 cell line (hematological)): 0.5 nM
IC50 (Homo sapiens, HCT-15, 72 h, HCT15 cell line (colon)): 4.7 nM
IC50 (Homo sapiens, HCT-116, 72 h, HCT116 cell line (colon)): 2 nM
IC50 (Homo sapiens, HEK293, 72 h, HEK293 cell line (kidney)): 20.9 nM
IC50 (Homo sapiens, HL-60, 72 h, HL-60 cell line (hematological)): 2.2 nM
IC50 (Homo sapiens, HT-29, 72 h, HT29 cell line (colon)): 3.5 nM
IC50 (Homo sapiens, HT-1080, 72 h, HT1080 cell line (connective tissue)): 1.7 nM
IC50 (Homo sapiens, HeLa, HELA cell line (cervical)): 6 nM
IC50 (Homo sapiens, HepG2, 72 h, HEPG2 cell line (liver)): 2 nM
IC50 (Homo sapiens, IGROV-1, 72 h, IGROV1 cell line (ovary)): 4.8 nM
IC50 (Homo sapiens, IMR-90, 72 h, IMR.90 cell line): 2.6 nM
IC50 (Homo sapiens, J82, 72 h, J82 cell line (bladder)): 5.1 nM
IC50 (Homo sapiens, JEG-3, 72 h, JEG3 cell line (placenta)): 5.3 nM
IC50 (Homo sapiens, JIMT-1, 72 h, JIMT1 cell line (breast)): 0.9 nM
IC50 (Homo sapiens, K562, 72 h, K-562 cell line (hematological)): 14.2 nM
IC50 (Homo sapiens, Kasumi 1, 72 h, KASUMI-1 cell line (hematological)): 3.5 nM
IC50 (Homo sapiens, L-363, 72 h, L-363 cell line (hematological)): 3.4 nM
IC50 (Homo sapiens, LoVo, LOVO cell line (colon)): 2.3 nM
IC50 (Homo sapiens, MCF7, 72 h, MCF7 cell line (breast)): 4.1 nM
IC50 (Homo sapiens, MDA-MB-231, 72 h, MDAMB231 cell line (breast)): 0.9 nM
IC50 (Homo sapiens, MDA-MB-435, 72 h, MDAMB435 cell line (skin)): 2.8 nM
IC50 (Homo sapiens, MDA-MB-436, 72 h, MDAMB436 cell line (breast)): 1.8 nM
IC50 (Homo sapiens, MDA-MB-468, 72 h, MDAMB468 cell line (breast)): 1.9 nM
IC50 (Homo sapiens, MG-63, 72 h, MG63 cell line (bone)): 4.8 nM
IC50 (Homo sapiens, MHH-ES-1, 72 h, MHHES1 cell line (bone)): 2 nM
IC50 (Homo sapiens, MIA PaCa-2, 72 h, MIAPACA2 cell line (pancreas)): 6.8 nM
IC50 (Homo sapiens, MINO, MINO cell line (hematological)): 0.3 nM
IC50 (Homo sapiens, MV4-11, 72 h, MV4-11 cell line (hematological)): 1.1 nM
IC50 (Homo sapiens, NCI-H23, 72 h, NCI-H23 cell line (lung)): 1.1 nM
IC50 (Homo sapiens, NCI-H82, 72 h, NCIH82 cell line (lung)): 7.6 nM
IC50 (Homo sapiens, NCI-H292, 72 h, NCIH292 cell line (lung)): 4.4 nM
IC50 (Homo sapiens, NCI-H460, 72 h, NCIH460 cell line (lung)): 5 nM
IC50 (Homo sapiens, OVCAR-3, 72 h, OVCAR3 cell line (ovary)): 3.1 nM
IC50 (Homo sapiens, OVCAR-4, 72 h, OVCAR4 cell line (ovary)): 4.9 nM
IC50 (Homo sapiens, PANC-1, 72 h, PANC1 cell line (pancreas)): 9.7 nM
IC50 (Homo sapiens, PC-3, 72 h, PC3 cell line (prostate)): 2.6 nM
IC50 (Homo sapiens, PLC-PRF-5, 72 h, PLCPRF5 cell line (liver)): 9.2 nM
IC50 (Homo sapiens, Panc1005, 72 h, PANC1005 cell line (pancreas)): 7.9 nM
IC50 (Homo sapiens, RD, RD cell line (muscle)): 2.3 nM
IC50 (Homo sapiens, Ramos, RAMOS cell line (hematological)): 0.6 nM
IC50 (Homo sapiens, SAOS-2, 72 h, SAOS2 cell line (bone)): 0.5 nM
IC50 (Homo sapiens, SF-268, 72 h, SF268 cell line (brain)): 4.1 nM
IC50 (Homo sapiens, SF-295, 72 h, SF295 cell line (brain)): 3.3 nM
IC50 (Homo sapiens, SK-BR-3, 72 h, SKBR3 cell line (breast)): 0.6 nM
IC50 (Homo sapiens, SK-HEP1, 72 h, SKHEP1 cell line (liver)): 4.7 nM
IC50 (Homo sapiens, SK-LMS-1, 72 h, SKLMS1 cell line (uterus)): 4.1 nM
IC50 (Homo sapiens, SK-MEL-28, 72 h, SKMEL28 cell line (skin)): 4.3 nM
IC50 (Homo sapiens, SK-N-AS, SKNAS cell line (brain)): 3.6 nM
IC50 (Homo sapiens, SK-N-SH, SKNSH cell line (brain)): 3.3 nM
IC50 (Homo sapiens, SK-OV-3, 72 h, SKOV3 cell line (ovary)): 23.7 nM
IC50 (Homo sapiens, SNB-75, 72 h, SNB75 cell line (brain)): 5.3 nM
IC50 (Homo sapiens, SU-DHL10, 72 h, SU-DHL-10 cell line (hematological)): 4.1 nM
IC50 (Homo sapiens, SU-DHL-6, 72 h, SU-DHL-6 cell line (hematological)): 6.8 nM
IC50 (Homo sapiens, SW-620, 72 h, SW620 cell line (colon)): 3 nM
IC50 (Homo sapiens, T-24, 72 h, T24 cell line (bladder)): 1.4 nM
IC50 (Homo sapiens, TE-671, 72 h, TE671 cell line (muscle)): 8.3 nM
IC50 (Homo sapiens, THP-1, 72 h, THP-1 cell line (hematological)): 1.1 nM
IC50 (Homo sapiens, U2OS, U2OS cell line (bone)): 5.7 nM
IC50 (Homo sapiens, U-87 MG, U87MG cell line (brain)): 1.5 nM
IC50 (Homo sapiens, UMUC3, 72 h, UMUC3 cell line (bladder)): 4.3 nM
IC50 (Homo sapiens, UO-31, 72 h, UO31 cell line (kidney)): 3.7 nM
IC50 (Homo sapiens, WSU-NHL, WSU-NHL cell line (hematological)): 4.5 nM
IC50 (MT-3, 72 h, MT3 cell line (breast)): 0.9 nM
IC50 (NCI-H358M, NCIH358M cell line (lung)): 3.5 nM
IC50 (PBMC, PBMC (hematological)): 12300 nM
IC50 (RD-ES, RDES cell line (bone)): 3.7 nM
Compound: Nc1ccn([C@@H]2O[C@H](CO)[C@@H](O)C2(F)F)c(=O)n1 [gemcitabine, reference compound]
cytotoxicity against a panel of cell lines (waterfall plot) (panel of cancer and non-cancer cell lines, figure legends FIG. 1-3): indiscriminately cytotoxic
